Columns and labels:
[1] = molecular target: PrP^Sc in ScN2a cells (Mus musculus, UniProt P04925); assay: cell-based
[2] = molecular target: PrP^Sc in ScGT1 cells (Mus musculus, UniProt P04925); assay: cell-based
[3] = system: ScN2a cells; settings: mouse
[4] = system: ScGT1 cells; settings: for % cell viability ± SEM ScGT1: mouse

PrP^Sc in ScGT1 cells, sequence (P04925 23-230 limits assumed): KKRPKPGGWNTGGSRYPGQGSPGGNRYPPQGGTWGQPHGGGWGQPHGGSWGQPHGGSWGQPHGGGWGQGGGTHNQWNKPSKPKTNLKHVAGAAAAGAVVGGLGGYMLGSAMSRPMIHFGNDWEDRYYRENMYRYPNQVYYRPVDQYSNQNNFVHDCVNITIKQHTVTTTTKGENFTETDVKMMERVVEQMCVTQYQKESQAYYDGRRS
PrP^Sc in ScN2a cells, sequence (P04925 23-230 limits assumed): as above

| Compound | EC50 [1] [µM] | EC50 [2] [µM] | % cell viability ± SEM ScN2a [3] [%] | % cell viability ± SEM ScGT1 [4] [%] | cytotoxicity to the neurons [4] | dead cells [4] |
| --- | --- | --- | --- | --- | --- | --- |
| CN(C)CCCN1c2ccccc2CCc2ccccc21 [Imipramime, imipramine] | 5.5 ± 0.5 | 6.2 ± 0.4 | 100 ± 5 | 100 ± 7 | – | – |
| CCN(CC)CCCC(C)Nc1c2ccc(Cl)cc2nc2ccc(OC)cc12 (centres unmarked) [Quinacrine, quinacrine] | – | – | 100 ± 2 | 100 ± 4 | – | – |
| sodium polystyrenesulfonate [PSS] | – | – | – | – | weak cytotoxicity | around 20% |

Source: patent US20110262546A1 (priority 2008, published 2011)
